Our source for the IC50 values is patent publication US8476298B2 (Exelixis, Inc., priority 2003, dated 2013).

Structures are written as SMILES.

One assay deals with c-Kit kinase (Homo sapiens, UniProt P10721). Briefly: c-Kit AlphaScreen kinase assay.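 Further: c-Kit kinase phosphorylating biotinylated poly(Glu,Tyr), ATP near its KM, 1 h reaction at ambient temperature, AlphaScreen chemiluminescence with streptavidin donor and anti-phosphotyrosine acceptor beads, 10-point inhibitor titration.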 The class given is biochemical. (In general: Alpha assays give light when donor and acceptor beads are brought close together.)
Assay [1] addresses T1, c-Met (baculovirus expressed human c-Met kinase domain P948-S1343) (Homo sapiens, UniProt P08581).
T1 construct: human c-Met kinase domain P948-S1343; host or cells: baculovirus expression
Put plainly: c-Met Luciferase-Coupled Chemiluminescent Kinase assay (LCCA).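 Further: kinase activity read as percent ATP left after reaction, by luciferase-luciferin chemiluminescence, with 1 µM ATP and 1 µM poly-EY substrate, 2 h at ambient temperature, 10-point dose-response.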 The class given is biochemical.

Assay [2] deals with T2, KDR (baculovirus expressed human KDR kinase domain D807-V1356) (Homo sapiens, UniProt P35968).
T2 construct: human KDR kinase domain D807-V1356; host or cells: baculovirus expression
Briefly: biochemical.

The target of assay [3] is T3, Flt-3 (baculovirus expressed human Flt-3 kinase domain R571-S993) (Homo sapiens, UniProt P36888).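 Further: Luciferase-coupled chemiluminescent kinase assay, activity read as percent ATP left after a 3 h reaction at room temperature, ATP near KM, 10-point dose-response.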
T3 construct: human Flt-3 kinase domain R571-S993; host or cells: baculovirus expression
T3 sequence (P36888 571-993): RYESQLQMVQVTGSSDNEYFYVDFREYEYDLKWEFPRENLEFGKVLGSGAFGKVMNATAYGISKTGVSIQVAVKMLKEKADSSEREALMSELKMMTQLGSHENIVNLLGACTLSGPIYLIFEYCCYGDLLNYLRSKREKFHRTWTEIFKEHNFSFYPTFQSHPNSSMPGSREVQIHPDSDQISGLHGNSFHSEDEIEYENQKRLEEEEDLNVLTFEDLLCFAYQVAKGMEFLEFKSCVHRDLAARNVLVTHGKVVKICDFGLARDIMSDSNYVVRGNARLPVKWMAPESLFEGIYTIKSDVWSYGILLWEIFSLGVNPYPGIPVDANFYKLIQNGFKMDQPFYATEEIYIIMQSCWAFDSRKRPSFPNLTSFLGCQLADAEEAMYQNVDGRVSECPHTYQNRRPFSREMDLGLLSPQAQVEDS
Briefly: biochemical. The conditions noted are these: read-out: flt3 IC50.

T1 sequence (P08581 1011-1343 limits assumed): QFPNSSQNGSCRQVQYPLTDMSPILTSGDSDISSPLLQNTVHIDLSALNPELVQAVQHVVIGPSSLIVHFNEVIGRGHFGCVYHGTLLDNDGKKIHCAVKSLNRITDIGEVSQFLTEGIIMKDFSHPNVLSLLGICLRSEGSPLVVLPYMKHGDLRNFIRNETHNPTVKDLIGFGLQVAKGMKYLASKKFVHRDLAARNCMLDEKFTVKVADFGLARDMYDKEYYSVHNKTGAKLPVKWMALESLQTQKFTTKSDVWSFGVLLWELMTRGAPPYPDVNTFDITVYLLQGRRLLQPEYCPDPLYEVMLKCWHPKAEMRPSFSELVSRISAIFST
T2 sequence (P35968 807-1356): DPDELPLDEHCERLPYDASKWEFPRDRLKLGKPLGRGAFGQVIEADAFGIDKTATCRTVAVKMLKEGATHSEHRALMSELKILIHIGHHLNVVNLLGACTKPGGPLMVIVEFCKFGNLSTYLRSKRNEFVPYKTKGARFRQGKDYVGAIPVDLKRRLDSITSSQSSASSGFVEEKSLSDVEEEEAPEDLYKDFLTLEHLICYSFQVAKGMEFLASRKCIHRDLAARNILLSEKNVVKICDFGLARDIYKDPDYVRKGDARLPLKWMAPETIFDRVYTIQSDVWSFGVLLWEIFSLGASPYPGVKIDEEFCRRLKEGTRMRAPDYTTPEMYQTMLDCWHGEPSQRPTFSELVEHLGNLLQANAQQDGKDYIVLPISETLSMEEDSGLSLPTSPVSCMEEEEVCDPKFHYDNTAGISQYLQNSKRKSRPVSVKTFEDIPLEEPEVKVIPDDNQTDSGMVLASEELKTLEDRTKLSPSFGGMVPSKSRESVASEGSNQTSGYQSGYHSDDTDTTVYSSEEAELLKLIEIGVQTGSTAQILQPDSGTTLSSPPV
c-Kit kinase, sequence (P10721 26-976): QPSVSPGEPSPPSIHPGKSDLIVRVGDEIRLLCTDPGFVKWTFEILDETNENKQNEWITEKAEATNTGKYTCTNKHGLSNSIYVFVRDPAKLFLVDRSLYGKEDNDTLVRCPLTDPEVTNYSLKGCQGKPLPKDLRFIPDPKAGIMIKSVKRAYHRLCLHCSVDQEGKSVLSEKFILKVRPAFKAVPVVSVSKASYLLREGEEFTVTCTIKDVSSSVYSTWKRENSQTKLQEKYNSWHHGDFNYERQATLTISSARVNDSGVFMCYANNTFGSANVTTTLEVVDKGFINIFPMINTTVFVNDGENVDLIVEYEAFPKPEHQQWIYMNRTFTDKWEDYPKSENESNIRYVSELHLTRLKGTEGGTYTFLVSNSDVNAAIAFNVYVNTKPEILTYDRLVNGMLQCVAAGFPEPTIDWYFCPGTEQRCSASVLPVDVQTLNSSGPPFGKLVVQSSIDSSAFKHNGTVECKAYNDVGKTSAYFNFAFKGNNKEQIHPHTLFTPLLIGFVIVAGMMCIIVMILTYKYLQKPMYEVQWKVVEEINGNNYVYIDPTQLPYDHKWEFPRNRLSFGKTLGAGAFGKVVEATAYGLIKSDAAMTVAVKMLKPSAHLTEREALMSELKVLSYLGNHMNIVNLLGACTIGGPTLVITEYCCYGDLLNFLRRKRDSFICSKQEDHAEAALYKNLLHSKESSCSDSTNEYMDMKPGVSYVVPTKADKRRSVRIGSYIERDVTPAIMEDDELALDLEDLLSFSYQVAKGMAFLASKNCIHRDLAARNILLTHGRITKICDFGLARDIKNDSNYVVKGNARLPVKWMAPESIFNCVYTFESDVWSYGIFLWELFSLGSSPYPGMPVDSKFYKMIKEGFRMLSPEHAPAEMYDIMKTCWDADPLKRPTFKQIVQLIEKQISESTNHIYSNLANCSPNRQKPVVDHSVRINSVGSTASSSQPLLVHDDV

`COc1cc2nccc(Oc3ccc(NC(=O)C(=O)NCc4ccccc4)cc3F)c2cc1OC` [Entry 12] displayed an IC50 on c-Kit kinase of 0.05 to 0.5 µM.

Consider `COc1cc2c(Oc3ccc(NC(=O)C(=O)NCCc4cccc(Cl)c4)cc3F)ccnc2cc1OCC1CCNCC1` [Example 149, N-[2-(3-Chloro-phenyl)-ethyl]-N′-{3-fluoro-4-[6-methoxy-7-{piperidin-4-ylmethoxy)-quinolin-4-yloxy]-phenyl}-oxalamide], for which, on c-Kit kinase, the IC50 was less than 0.05 µM.

Regarding `COc1cc2c(Oc3ccc(NC(=O)C4(C(=O)Nc5ccc(F)cc5)CCC4)cc3F)ncnc2cc1OCCCN1CCN(C)CC1` [Example 381, N-{3-fluoro-4-[(6-(methyloxy)-7-{[3-(4-methylpiperazin-1-yl)propyl]oxy}quinazolin-4-yl)oxy]phenyl}-N′-(4-fluorophenyl)cyclobutane-1,1-dicarboxamide], the IC50 in assay [1] is less than 0.05 µM; in assay [2], less than 0.05 µM; in assay [3] it was 0.05 to 0.5 µM.

For the molecule `COc1cc2c(Oc3ccc(NC(=O)C4(C(=O)Nc5ccc(F)cc5)CCC4)cc3F)ncnc2cc1OCCCN1CCNCC1` [Example 382, N-[3-fluoro-4-({6-(methyloxy)-7-[(3-piperazin-1-ylpropyl)oxy]quinazolin-4-yl}oxy)phenyl]-N′-(4-fluorophenyl)cyclobutane-1,1-dicarboxamide], the IC50 was less than 0.05 µM in assay [1], less than 0.05 µM in assay [2] and 0.05 to 0.5 µM in assay [3].

As for `COc1cc2c(Oc3ccc(NC(=O)C4(C(=O)Nc5ccc(F)cc5)[C@H](C)[C@H]4C)cc3F)ncnc2cc1OCCCN1CCOCC1` (stereo partly drawn) [Example 383, (2R,3R)-N-[3-fluoro-4-({6-(methyloxy)-7-[(3-morpholin-4-ylpropyl)oxy]quinazolin-4-yl}oxy)phenyl]-N′-(4-fluorophenyl)-2,3-dimethylcyclopropane-1,1-dicarboxamide], the IC50 in assay [1] is less than 0.05 µM; in assay [2], less than 0.05 µM; in assay [3] it was 0.5 to 5 µM.

Turning to `CCN(CC)CCCOc1cc2nccc(Oc3ccc(NC(=O)C4(C(=O)Nc5ccc(F)cc5)CCC4)cc3F)c2cc1OC` [Example 384, N-(4-{[7-{[3-(diethylamino)propyl]oxy}-6-(methyloxy)quinolin-4-yl]oxy}-3-fluorophenyl)-N′-(4-fluorophenyl)cyclobutane-1,1-dicarboxamide], the IC50 in assay [1] is less than 0.05 µM; in assay [2] it was less than 0.05 µM; in assay [3], 0.5 to 5 µM.

Consider `COc1cc2c(Oc3ccc(NC(=O)C4(C(=O)Nc5ccc(F)cc5)CCC4)cc3F)ccnc2cc1OCCCN1CCN(C)CC1` [Example 385, N-{3-fluoro-4-[(6-(methyloxy)-7-{[3-(4-methylpiperazin-1-yl)propyl]oxy}quinolin-4-yl)oxy]phenyl}-N′-(4-fluorophenyl)cyclobutane-1,1-dicarboxamide], for which the values for the IC50 in assay [1], in assay [2] and in assay [3] were less than 0.05 µM, less than 0.05 µM and 0.5 to 5 µM, respectively.

For `CCN(CC)CCCOc1cc2ncnc(Oc3ccc(NC(=O)[C@]4(C(=O)Nc5ccc(F)cc5)C[C@H]4C)cc3F)c2cc1OC` [Example 386, (1R,2R)-N-(4-{[7-{[3-(diethylamino)propyl]oxy}-6-(methyloxy)quinazolin-4-yl]oxy}-3-fluorophenyl)-N′-(4-fluorophenyl)-2-methylcyclopropane-1,1-dicarboxamide], the IC50 in assay [1], in assay [2] and in assay [3] was less than 0.05 µM throughout.

Regarding `COc1cc2c(Oc3ccc(NC(=O)[C@]4(C(=O)Nc5ccc(F)cc5)C[C@H]4C)cc3F)ncnc2cc1OCCCN1CCN(C)CC1` [Example 387, (1R,2R)-N-{3-fluoro-4-[(6-(methyloxy)-7-{[3-(4-methylpiperazin-1-yl)propyl]oxy}quinazolin-4-yl)oxy]phenyl}-N′-(4-fluorophenyl)-2-methylcyclopropane-1,1-dicarboxamide], the IC50 in assay [1], in assay [2] and in assay [3] was less than 0.05 µM throughout.

As to `CCN(CC)CCOc1cc2ncnc(Oc3ccc(NC(=O)C4(C(=O)Nc5ccc(F)cc5)[C@H](C)[C@H]4C)cc3F)c2cc1OC` (stereo partly drawn) [Example 388, (2R,3R)-N-(4-{[7-{[2-(diethylamino)ethyl]oxy}-6-(methyloxy)quinazolin-4-yl]oxy}-3-fluorophenyl)-N′-(4-fluorophenyl)-2,3-dimethylcyclopropane-1,1-dicarboxamide], the IC50 in assay [1] is 0.05 to 0.5 µM; in assay [2], less than 0.05 µM; in assay [3], 0.5 to 5 µM.

For the molecule `CCN(CC)CCCOc1cc2ncnc(Oc3ccc(NC(=O)C4(C(=O)Nc5ccc(F)cc5)[C@H](C)[C@H]4C)cc3F)c2cc1OC` (stereo partly drawn) [Example 389, (2R,3R)-N-(4-{[7-{[3-(diethylamino)propyl]oxy}-6-(methyloxy)quinazolin-4-yl]oxy}-3-fluorophenyl)-N′-(4-fluorophenyl)-2,3-dimethylcyclopropane-1,1-dicarboxamide], the IC50 in assay [1] was less than 0.05 µM; in assay [2] it was less than 0.05 µM; in assay [3], 0.05 to 0.5 µM.

On to `COc1cc2c(Oc3ccc(NC(=O)[C@]4(C(=O)Nc5ccc(F)cc5)C[C@H]4C)cc3F)ncnc2cc1OCCCN1CCNCC1` [Example 390, (1R,2R)-N-[3-fluoro-4-({6-(methyloxy)-7-[(3-piperazin-1-ylpropyl)oxy]quinazolin-4-yl}oxy)phenyl]-N′-(4-fluorophenyl)-2-methylcyclopropane-1,1-dicarboxamide], for which the IC50 in assay [1], in assay [2] and in assay [3] was less than 0.05 µM in each case.

For `CCN(CC)CCOc1cc2nccc(Oc3ccc(NC(=O)C4(C(=O)Nc5ccc(F)cc5)[C@H](C)[C@H]4C)cc3F)c2cc1OC` (stereo partly drawn) [Example 391, (2R,3R)-N-(4-{[7-{[2-(diethylamino)ethyl]oxy}-6-(methyloxy)quinolin-4-yl]oxy}-3-fluorophenyl)-N′-(4-fluorophenyl)-2,3-dimethylcyclopropane-1,1-dicarboxamide], the half-inhibitory concentration (IC50) in assay [1] was less than 0.05 µM; in assay [2], less than 0.05 µM; in assay [3], 0.05 to 0.5 µM.

Turning to `COc1cc2nccc(Oc3ccc(NC(=O)C4(C(=O)NCc5ccc(F)cc5)CC4)cc3)c2cc1OC` [Example 392, N-(4-{[6,7-bis(methyloxy)quinolin-4-yl]oxy}phenyl)-N′-[(4-fluorophenyl)methyl]cyclopropane-1,1-dicarboxamide], the IC50 is 0.05 to 0.5 µM in assay [1], 0.05 to 0.5 µM in assay [2] and less than 0.05 µM in assay [3].

`COc1cc2nccc(Oc3ccc(NC(=O)C4(C(=O)NCCN5CCOCC5)CC4)cc3)c2cc1OC` [Example 393, N-(4-{[6,7-bis(methyloxy)quinolin-4-yl]oxy}phenyl)-N′-(2-morpholin-4-ylethyl)cyclopropane-1,1-dicarboxamide]: the IC50 was 0.5 to 5 µM in assay [1], more than 5 µM in assay [2] and 0.05 to 0.5 µM in assay [3].

With `COc1cc2nccc(Oc3ccc(NC(=O)C4(C(=O)Nc5ccccc5CN5CCCCC5)CC4)cc3)c2cc1OC` [Example 394, N-(4-{[6,7-bis(methyloxy)quinolin-4-yl]oxy}phenyl)-N′-[2-(piperidin-1-ylmethyl)phenyl]cyclopropane-1,1-dicarboxamide], the IC50 in assay [1] is 0.05 to 0.5 µM; in assay [2], more than 5 µM; in assay [3] it was 0.05 to 0.5 µM.

Take `COc1cc2nccc(Oc3ccc(NC(=O)C4(C(=O)Nc5ccccc5CN5CCCC5)CC4)cc3)c2cc1OC` [Example 395, N-(4-{[6,7-bis(methyloxy)quinolin-4-yl]oxy}phenyl)-N′-[2-(pyrrolidin-1-ylmethyl)phenyl]cyclopropane-1,1-dicarboxamide]: the half-inhibitory concentration (IC50) in assay [1] is 0.05 to 0.5 µM; in assay [2] it was 0.5 to 5 µM; in assay [3] it was 0.05 to 0.5 µM.

For `COc1cc2nccc(Oc3ccc(NC(=O)C4(C(=O)Nc5cccc(CN6CCOCC6)c5)CC4)cc3)c2cc1OC` [Example 396, N-(4-{[6,7-bis(methyloxy)quinolin-4-yl]oxy}phenyl)-N′-[3-(morpholin-4-ylmethyl)phenyl]cyclopropane-1,1-dicarboxamide], the IC50 in assay [1] was 0.05 to 0.5 µM; in assay [2], less than 0.05 µM; in assay [3], less than 0.05 µM.

`COc1cc2nccc(Oc3ccc(NC(=O)C4(C(=O)Nc5ccccc5CN5CCOCC5)CC4)cc3)c2cc1OC` [Example 397, N-(4-{[6,7-bis(methyloxy)quinolin-4-yl]oxy}phenyl)-N′-[2-(morpholin-4-ylmethyl)phenyl]cyclopropane-1,1-dicarboxamide]: the IC50 in assay [1] was in the range of 0.05 to 0.5 µM; in assay [2], 0.5 to 5 µM; in assay [3], 0.05 to 0.5 µM.

`COc1cc2nccc(Oc3ccc(NC(=O)C4(C(=O)Nc5ccccc5)CC4)cc3)c2cc1OC` [Example 398, N-(4-{[6,7-bis(methyloxy)quinolin-4-yl]oxy}phenyl)-N′-phenylcyclopropane-1,1-dicarboxamide]: the IC50 in assay [1], in assay [2] and in assay [3] was less than 0.05 µM each time.

For `COc1cc2nccc(Oc3ccc(NC(=O)C4(C(=O)Nc5cccc(CN)c5)CC4)cc3)c2cc1OC` [Example 399, N-[3-(aminomethyl)phenyl]-N′-(4-{[6,7-bis(methyloxy)quinolin-4-yl]oxy}phenyl)cyclopropane-1,1-dicarboxamide], the figures for the IC50 in assay [1], in assay [2] and in assay [3] were 0.05 to 0.5 µM, less than 0.05 µM and 0.05 to 0.5 µM, respectively.

As usually defined, the IC50 is the concentration needed to halve the response being measured.
